This note sets out measurements from article PMC3260308, “Substrate Specificity within a Family of Outer Membrane Carboxylate Channels” (PLoS Biology, 2012).

Like-named read-outs stand apart in the source and are kept apart here.

For one assay, the target named is T1, OccK2 (Pseudomonas aeruginosa, UniProt Q9I6P8).
T1 construct: gene PA0240; pB22, N-terminal hexa-histidine tag; expressed in E. coli BL21 omp8, total membrane vesicles
T1 sequence (Q9I6P8 25-421): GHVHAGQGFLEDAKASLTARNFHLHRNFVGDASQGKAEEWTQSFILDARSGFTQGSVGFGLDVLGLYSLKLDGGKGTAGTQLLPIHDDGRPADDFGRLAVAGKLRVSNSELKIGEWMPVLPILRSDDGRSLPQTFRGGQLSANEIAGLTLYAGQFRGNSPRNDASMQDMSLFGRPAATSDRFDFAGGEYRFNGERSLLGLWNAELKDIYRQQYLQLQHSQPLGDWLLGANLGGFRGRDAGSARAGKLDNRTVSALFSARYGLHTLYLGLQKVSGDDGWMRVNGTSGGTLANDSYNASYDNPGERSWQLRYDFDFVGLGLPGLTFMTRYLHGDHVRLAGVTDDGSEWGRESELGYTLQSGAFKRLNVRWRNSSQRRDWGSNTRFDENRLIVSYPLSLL
Kind of assay: competition of radiolabelled uptake in total membrane vesicles. The following applies: vs 0.5 uM 3H-glucuronate, 5 uM unlabelled compound, 10 mM HEPES pH 7.0, 25 C, 10 min. It counts as biochemical. An excerpt:
competition of radiolabelled uptake in total membrane vesicles on OccK2

Assay [1] deals with T2, OccD1 (formerly OprD) (Pseudomonas aeruginosa, UniProt P32722).
T2 construct: pB22, N-terminal hexa-histidine tag kept in vesicles; expressed in porin-deficient E. coli BL21 omp8; total membrane vesicles (purified protein for liposome swelling)
It counts as biochemical. The conditions noted are these: vs 0.25 uM 14C-arginine, 2.5 uM unlabelled compound, 10 mM HEPES pH 7.0, 25 C, 15 min. An excerpt:
competition of radiolabelled uptake in total membrane vesicles on OccD1 (formerly OprD)

The target of assay [2] is T2, OccD1 (formerly OprD). Kind of assay: competition of arginine uptake in membrane vesicles; liposome swelling. Type of assay: biochemical. The conditions noted are these: 10-fold excess over 0.25 uM 14C-arginine, pH 7.0, 25 C; uptake confirmed by liposome swelling.
A further assay deals with T3, OccK1 (formerly OpdK) (Pseudomonas aeruginosa, UniProt Q9HUR5).
T3 construct: pB22, N-terminal hexa-histidine tag; expressed in E. coli BL21 omp8, total membrane vesicles; purified protein for crystals
T3 sequence (Q9HUR5 28-417): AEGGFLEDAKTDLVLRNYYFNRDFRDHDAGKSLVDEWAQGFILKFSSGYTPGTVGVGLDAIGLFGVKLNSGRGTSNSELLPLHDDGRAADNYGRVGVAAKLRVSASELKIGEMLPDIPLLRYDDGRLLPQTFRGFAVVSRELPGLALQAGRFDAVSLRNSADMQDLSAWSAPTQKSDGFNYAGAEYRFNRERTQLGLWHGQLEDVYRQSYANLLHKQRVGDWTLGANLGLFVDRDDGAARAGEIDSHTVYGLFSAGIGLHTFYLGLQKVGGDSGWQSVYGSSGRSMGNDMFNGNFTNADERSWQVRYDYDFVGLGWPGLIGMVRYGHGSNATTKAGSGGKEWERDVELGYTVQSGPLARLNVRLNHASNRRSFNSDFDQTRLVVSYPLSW
Kind of assay: competition of radiolabelled uptake in total membrane vesicles. Type of assay: biochemical. The following applies: vs 0.5 uM 3H-benzoate, 5 uM unlabelled compound, 10 mM HEPES pH 7.0, 25 C, 10 min. From the text: competition of radiolabelled uptake in total membrane vesicles on OccK1 (formerly OpdK)

The target in another assay is T4, OccK4 (Pseudomonas aeruginosa, UniProt Q9HWP4).
T4 construct: gene PA4137; pB22, N-terminal hexa-histidine tag; expressed in E. coli BL21 omp8, total membrane vesicles
Put plainly: radiolabelled uptake in total membrane vesicles. It counts as biochemical. The conditions noted are these: 10 uM 14C-phenylacetate, 45 min; very low specific activity; labelled compound.

Another assay concerns the target OccD1 (P. aeruginosa) (UniProt P32722).
Assay [3] has as its target T5, OccK3 (Pseudomonas aeruginosa, UniProt Q9I202).
T5 construct: gene opdO; pB22, N-terminal hexa-histidine tag; expressed in E. coli BL21 omp8, total membrane vesicles; purified protein for liposome swelling
T5 sequence (Q9I202 26-409): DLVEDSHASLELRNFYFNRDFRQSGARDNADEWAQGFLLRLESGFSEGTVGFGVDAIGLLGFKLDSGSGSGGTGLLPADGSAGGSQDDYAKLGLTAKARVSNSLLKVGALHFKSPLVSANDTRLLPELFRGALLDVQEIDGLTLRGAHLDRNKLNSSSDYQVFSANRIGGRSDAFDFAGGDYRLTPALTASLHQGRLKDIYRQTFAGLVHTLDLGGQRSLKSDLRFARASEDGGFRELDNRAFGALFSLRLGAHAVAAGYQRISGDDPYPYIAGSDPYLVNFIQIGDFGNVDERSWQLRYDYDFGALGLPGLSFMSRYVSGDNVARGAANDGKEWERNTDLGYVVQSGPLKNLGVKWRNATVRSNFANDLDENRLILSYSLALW
Put plainly: competition of pyroglutamate uptake in membrane vesicles; liposome swelling. Type of assay: biochemical. The following applies: 10-fold excess over radiolabelled pyroglutamate, pH 7.0; uptake confirmed by liposome swelling.

A further assay addresses T6, OccD2 (formerly OpdC) (Pseudomonas aeruginosa, UniProt Q9I6X0).
T6 construct: pB22, N-terminal hexa-histidine tag; expressed in E. coli BL21 omp8, total membrane vesicles
T6 sequence (Q9I6X0 23-444): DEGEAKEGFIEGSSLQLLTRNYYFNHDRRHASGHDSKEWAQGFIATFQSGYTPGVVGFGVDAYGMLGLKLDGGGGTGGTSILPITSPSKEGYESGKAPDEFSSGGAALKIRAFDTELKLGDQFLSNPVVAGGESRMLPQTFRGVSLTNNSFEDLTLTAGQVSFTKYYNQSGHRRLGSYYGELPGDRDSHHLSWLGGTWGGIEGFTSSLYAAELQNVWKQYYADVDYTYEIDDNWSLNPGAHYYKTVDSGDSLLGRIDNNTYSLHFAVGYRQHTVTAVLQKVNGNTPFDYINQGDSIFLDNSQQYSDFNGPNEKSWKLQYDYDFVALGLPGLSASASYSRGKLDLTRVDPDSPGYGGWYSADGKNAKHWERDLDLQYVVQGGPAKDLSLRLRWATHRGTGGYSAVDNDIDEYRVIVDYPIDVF
Kind of assay: radiolabelled uptake in total membrane vesicles. Type of assay: biochemical. The following applies: 0.25 uM 14C-arginine, 15 min, 10 mM HEPES pH 7.0, 25 C; labelled compound.

Another assay concerns the target T7, OccD3 (formerly OpdP) (Pseudomonas aeruginosa, UniProt Q9HVS0).
T7 construct: pB22, N-terminal hexa-histidine tag; expressed in E. coli BL21 omp8, total membrane vesicles
T7 sequence (Q9HVS0 26-484): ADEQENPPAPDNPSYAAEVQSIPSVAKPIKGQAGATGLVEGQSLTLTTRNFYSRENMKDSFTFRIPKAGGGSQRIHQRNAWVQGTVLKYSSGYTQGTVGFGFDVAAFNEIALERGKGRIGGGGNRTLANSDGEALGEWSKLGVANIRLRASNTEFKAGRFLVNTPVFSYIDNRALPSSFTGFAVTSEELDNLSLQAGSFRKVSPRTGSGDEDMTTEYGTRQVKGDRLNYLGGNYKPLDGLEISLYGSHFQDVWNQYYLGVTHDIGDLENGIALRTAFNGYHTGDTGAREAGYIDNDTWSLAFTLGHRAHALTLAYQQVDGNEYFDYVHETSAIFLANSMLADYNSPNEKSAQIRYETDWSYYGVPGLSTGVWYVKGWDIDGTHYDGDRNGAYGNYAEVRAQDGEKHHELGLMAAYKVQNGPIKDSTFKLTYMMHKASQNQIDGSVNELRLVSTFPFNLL
Kind of assay: radiolabelled uptake in total membrane vesicles. Type of assay: biochemical. The following applies: 0.25 uM 14C-arginine, 15 min, 10 mM HEPES pH 7.0, 25 C; labelled compound.

Assay [4] concerns the target T5, OccK3. Kind of assay: radiolabelled uptake in total membrane vesicles. It counts as biochemical. The conditions noted are these: 0.5 uM 3H-pyroglutamate, 15 min, 10 mM HEPES pH 7.0, 25 C; labelled compound.
Another assay concerns the target T8, OccK7 (Pseudomonas aeruginosa, UniProt Q9I4U9).
T8 construct: gene PA1025; pB22, N-terminal hexa-histidine tag; expressed in E. coli BL21 omp8, total membrane vesicles
T8 sequence (Q9I4U9 23-416): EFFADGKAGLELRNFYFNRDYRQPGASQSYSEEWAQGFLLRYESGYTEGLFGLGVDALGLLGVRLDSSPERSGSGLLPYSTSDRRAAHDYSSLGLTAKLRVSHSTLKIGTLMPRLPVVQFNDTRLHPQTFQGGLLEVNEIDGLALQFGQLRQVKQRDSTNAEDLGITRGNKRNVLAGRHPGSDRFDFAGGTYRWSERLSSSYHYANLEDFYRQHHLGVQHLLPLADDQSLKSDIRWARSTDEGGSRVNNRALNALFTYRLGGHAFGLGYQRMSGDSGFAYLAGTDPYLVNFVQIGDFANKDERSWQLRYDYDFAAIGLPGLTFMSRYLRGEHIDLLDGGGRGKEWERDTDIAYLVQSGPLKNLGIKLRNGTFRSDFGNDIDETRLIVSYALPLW
Kind of assay: competition of benzoate uptake in membrane vesicles. It counts as biochemical. The following applies: 10-fold excess over radiolabelled benzoate, pH 7.0.

Assay [5] concerns the target T2, OccD1 (formerly OprD). Kind of assay: competition of arginine uptake in membrane vesicles. It counts as biochemical. The conditions noted are these: 10-fold excess over 0.25 uM 14C-arginine, pH 7.0, 25 C.

T2 sequence (P32722 24-443): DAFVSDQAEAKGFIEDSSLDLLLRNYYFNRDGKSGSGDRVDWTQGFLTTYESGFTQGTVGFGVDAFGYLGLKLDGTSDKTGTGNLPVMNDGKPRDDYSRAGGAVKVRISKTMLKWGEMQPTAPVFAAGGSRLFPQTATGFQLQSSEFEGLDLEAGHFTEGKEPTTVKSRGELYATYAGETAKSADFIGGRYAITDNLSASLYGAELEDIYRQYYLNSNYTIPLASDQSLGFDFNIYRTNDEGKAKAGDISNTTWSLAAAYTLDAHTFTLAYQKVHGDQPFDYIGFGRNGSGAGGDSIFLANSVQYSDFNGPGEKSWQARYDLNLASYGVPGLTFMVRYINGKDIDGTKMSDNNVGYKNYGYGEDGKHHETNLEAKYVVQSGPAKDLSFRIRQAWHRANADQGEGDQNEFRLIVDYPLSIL
Sequence of OccD1 (P. aeruginosa) (P32722 24-443): as above
T4 sequence (Q9HWP4 entry or part of it): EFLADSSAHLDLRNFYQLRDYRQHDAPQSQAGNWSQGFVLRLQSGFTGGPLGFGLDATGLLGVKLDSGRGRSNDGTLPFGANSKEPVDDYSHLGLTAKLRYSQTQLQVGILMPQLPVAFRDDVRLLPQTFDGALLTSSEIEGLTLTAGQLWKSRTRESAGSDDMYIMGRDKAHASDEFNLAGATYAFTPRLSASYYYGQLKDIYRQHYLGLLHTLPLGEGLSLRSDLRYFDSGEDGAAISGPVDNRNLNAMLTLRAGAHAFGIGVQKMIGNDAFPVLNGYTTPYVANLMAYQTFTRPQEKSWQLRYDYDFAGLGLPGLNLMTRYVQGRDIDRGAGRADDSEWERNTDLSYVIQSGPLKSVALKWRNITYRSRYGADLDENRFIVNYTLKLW

Consider `O=C(O)[C@H]1OC(O)[C@H](O)[C@@H](O)[C@@H]1O` (some centres unmarked) [glucuronate], for which, at OccK2 (self-competition), the “% radiolabelled uptake remaining” value was 3±3%.

In turn, `NCCC[C@H](N)C(=O)O` [Ornithine] returned an OccD1 at OccD1 (formerly OprD) [1] of 1±2%.

Regarding `C[C@@H](O)[C@H]1C(=O)N2C(C(=O)O)=C(SCCN=CN)C[C@H]12` [imipenem], the “% uptake remaining in 10-fold excess” value on OccD1 (formerly OprD) [2] was “For OccD1, inhibition of arginine uptake is caused only by imipenem and meropenem”.

As for `O=C(O)c1ccccc1` [benzoate], the OccK2 at OccK2 is on record as 20±6%. Further, the OccK1 on OccK1 (formerly OpdK) (self-competition, error printed as '+') was 1+3.

Turning to `O=C(O)Cc1ccccc1` [phenylacetate], the “radiolabelled uptake in total membrane vesicles” value at OccK4 is recorded as “OccK4 was indeed the most efficient phenylacetate uptake channel of the proteins tested”.

In the case of Arg-Arg dipeptide, the uptake of radiolabeled arginine by OccD1 in E. coli BL21 omp8 total membrane vesicles in the presence of a 10-fold excess of the unlabeled compound, as a percentage of uptake without it with OccD1 (P. aeruginosa) was determined as 40%.

Consider `CO/N=C(\C(=O)N[C@@H]1C(=O)N2C(C(=O)O)=C(COC(C)=O)CS[C@H]12)c1csc(N)n1` [cefotaxime], for which, on OccK3 [3], the “% uptake remaining in 10-fold excess” value was “OccK3-mediated transport is affected only with the cephalosporin cefotaxime”.

Regarding `N=C(N)NCCC[C@H](N)C(=O)O` [Arginine], the “radiolabelled uptake in total membrane vesicles” value was “OccD2 and OccD3, while efficient in arginine uptake” at OccD2 (formerly OpdC); “The efficient arginine uptake mediated by OccD3 is noteworthy” on OccD3 (formerly OpdP). Also, at OccD1 (formerly OprD) [1] (self-competition), the OccD1 stood at 2±1%.

`O=C1CC[C@@H](C(=O)O)N1` [pyroglutamate]: the “radiolabelled uptake in total membrane vesicles” value at OccK3 [4] was “the channel that is most efficient in pyroglutamate uptake (OccK3)”. At OccK2, the OccK2 is on record as 25±2%. At OccK1 (formerly OpdK), this molecule showed an OccK1 of 15±1%.

`C[C@@H](O)[C@H]1C(=O)N2C(C(=O)O)=C(S[C@@H]3CN[C@H](C(=O)N(C)C)C3)[C@H](C)[C@H]12` [meropenem]: the “% uptake remaining in 10-fold excess” value on OccK7 is “OccK7-mediated transport is lowered very efficiently by meropenem”; on OccD1 (formerly OprD) [5] it was “For OccD1, inhibition of arginine uptake is caused only by imipenem and meropenem”.

At OccD1 (formerly OprD) [1], `N[C@@H](Cc1cnc[nH]1)C(=O)O` [Histidine] yielded an OccD1 of 12±2%.

As for `O=C(O)c1ccc([N+](=O)[O-])cc1` [4-nitrobenzoate], at OccK1 (formerly OpdK), the OccK1 is given as 16±3%.

For `CCCCCC(=O)O` [caproate], the OccK1 on OccK1 (formerly OpdK) was determined as 20±5%.

As for `NCCCC[C@H](N)C(=O)O` [Lysine], the OccD1 on OccD1 (formerly OprD) [1] was 3±1%.
